The nature of test [1]: In-vivo analysis of body composition by dual-energy X-ray absorptiometry (DXA). Also noted: species or system mice. Here is the method:
Body composition was measured on day 14 of the treatment period by DXA using a Norland p-DEXA® (Norland, USA). The system provides a non-invasive method for quantification of whole body composition and is based on the differential attenuation of high and low energy x-rays by the tissues in the scan area. Soft tissues attenuate the energy beam less than bone; of the soft tissue mass, fat tissue attenuates the beam less than lean tissue. Fat mass consists primarily of adipose tissue, but lean mass includes organs, tendons, cartilage, blood and body water in addition to skeletal muscle. In the present study, fat mass, lean mass and bone mineral content (bone mass) were measured and reported. Mice were anesthetized with inhalation of isoflorane and placed on the instrument platform in ventral position. Measurements were performed at a speed of 10 mm/min and a resolution of 0.5×0.5 mm. Quality controls using phantom ID2232 and Calibration Standard 82315 (Norland) were performed before starting measurements.
(§1) Mice were treated with GHRP-2 for 18 days. […] This was partially a consequence of decreased (p=0.02) lipid utilization measured by indirect calorimetry. Hypothalamic mRNA levels (measured by RT-PCR) of neuropeptide Y (NPY), agouti-related-protein (AGRP), pro-opio-melanocortin (POMC) and […] (MCH) were not changed. Since GHRP-6 increases c-fos expression in NPY-neurons (Vernon, R. G.; J Endocrinol 150, 129-40 (1996)) and because these neurons also release AGRP, a natural melanocyte stimulating hormone antagonist, GHRP-2 treatment was repeated in NPY-knockout mice (NPY-/−). […] However, an increase in AGRP mRNA levels (p=0.008, n=24 in GHRP-2 treated (NPY-/−)) was observed. Plasma levels of IGF-I, insulin, glucose and corticosterone were not changed. […] 200 μg of rat ghrelin was injected subcutaneously into wild-type mice, GHRP-2 or vehicle (phosphate buffered saline). After 5 days of treatment, body weight increased (p=0.00) 12% in both ghrelin- and GHRP-2-treated mice but not in controls. This weight gain was a consequence of decreased energy expenditure and decreased lipid utilization.

For test [2], the system named is hypothalamic mRNA of NPY, AGRP, POMC, MCH. The test can be described thus: Hypothalamic mRNA levels measured by RT-PCR, wild-type mice. As to conditions: GHRP-2 treatment. It is filed as in vivo. Here is the method: as §1
A short description of test [3]: Indirect calorimetry (energy expenditure, fuel utilization). It is filed as in vivo, mice. The procedure: Twenty-four hour energy expenditure (EE) and respiratory quotient (RQ) were measured by indirect calorimetry using an open circuit calorimetry system (Oxymax, Columbus Instruments International Corporation; Columbus, Ohio). The instrument was calibrated before each experiment using standard gas mixtures containing known concentrations of CO2, N2 and O2. After the first daily injection, animals were placed in calorimeter chambers containing food and water in a room maintained under identical conditions as those described above throughout the treatment period. Gas sampled from each of 10 chambers was first dried by a condenser. The volume of oxygen consumed (VO2) and carbon dioxide produced (VCO2) in an hour was measured using a paramagnetic oxygen sensor and a spectrophotometric CO2 sensor. Such measurements were obtained hourly for 24 hours. RQ is the ratio of VCO2 to VO2. EE was calculated as the product of calorific value of oxygen (CV) and VO2 per kilogram (kg) of body weight; where CV=3.815+1.232*RQ (Elia, M. & Livesey, G, World Rev Nutr Diet 70, 68-131 (1992)). Total calories expended were calculated to determine daily fuel utilization. To calculate proportion of protein, fat and carbohydrate that is utilized during that 24-hour period, we used Flatt's proposal and assumed that protein utilization was equivalent to protein intake for adult stable animals (Flatt, J. P., J. Nutr Biochem 2, 193-202 (1991)). Using formulae and constants derived by Elia and Livesey (Elia, M. & Livesey, G., World Rev Nutr Diet, 70, 68-131 (1992)), we calculated the percent of daily fuel utilization derived from carbohydrate and fat. Daily caloric intake was calculated as (mass of daily food intake in g)*(physiological fuel value of the diet in kcal/g). Locomotor activity was measured by counting the number of times an animal breaks a new light beam during each of 24 hours in the calorimeter.
as §1

A short description of test [4]: Plasma levels of IGF-I, insulin, glucose and corticosterone after GHRP-2 treatment. It is filed as in vivo. Particulars: GHRP-2 treated mice. Here is the method: as §1
A short description of test [5]: In vivo administration to wild-type mice: food intake and body weight. As to conditions: for body weight increase: wild-type mice, subcutaneous injection, after 5 days of treatment, not in controls. The procedure: (§2) Wild-type mice (129SV strain) and NPY-knockout mice were obtained from Taconic Farms®. Eight-week old dwarf rats were purchased at Harlan UK. Animals were housed individually in a temperature controlled environment (25° C.) with a 12-hour light and 12-hour dark (18.00−06.00) photoperiod. All mice had ad libitum access to pelleted mouse food (5008 PMI® Nutrition International) and tap water. Mice were between 9 and 13 weeks of age and were injected daily between 17.00 and 18.00 with 0.1 ml of phosphate buffered saline (PBS) containing 0 or 8 mg/kg/d ghrelin over 13 days. Food intake and body weights were measured daily at 08.00 h. All animal experiments were conducted in accordance with the principles and procedures outlined in the National Institute of Health (NIH) Guide for the Care and Use of Laboratory Animals.
as §1

For test [6], the system named is NPY-knockout mice (NPY-/-). The test can be described thus: GHRP-2 treatment repeated in NPY-knockout mice. The test is classed as in vivo. Here is the method:
as §2
Mice were treated with GHRP-2 for 18 days. […] This was partially a consequence of decreased (p=0.02) lipid utilization measured by indirect calorimetry. Hypothalamic mRNA levels (measured by RT-PCR) of neuropeptide Y (NPY), agouti-related-protein (AGRP), pro-opio-melanocortin (POMC) and […] (MCH) were not changed. […]

Setting [7] is: wild-type mice, 5 days of treatment.
[8] abbreviates: mice treated with GHRP-2 for 18 days, n=42, p=0.001.

For GHRP-2, the fat mass entry in test [1] (mice, 18 days treatment, DXA, p=0.002) is recorded as “significant increase”. Further, in test [1] (mice, 18 days treatment, DXA, p=0.017), the bone mass entry was “significant increase”. In addition, the lean mass entry in test [1] (mice, 18 days treatment, DXA, p=0.63) was “no change”. In test [2], the “hypothalamic mRNA level of agouti-related-protein (AGRP)” value is on record as “not changed”, the “hypothalamic mRNA level of melanocyte-concentrating hormone (MCH)” value is reported as “not changed”, the “hypothalamic mRNA level of neuropeptide Y (NPY)” value is on record as “not changed” and the “hypothalamic mRNA level of pro-opio-melanocortin (POMC)” value is “not changed”. Further, the lipid utilization entry in test [3] (mice, 18 days treatment, indirect calorimetry, p=0.02) was “decreased”. In test [3] (setting [7]), the energy expenditure entry is “decreased” and the lipid utilization result is reported as “decreased”. In test [4], the “plasma level of IGF-I” value is given as “not changed”, the “plasma level of corticosterone” value is listed as “not changed”, the “plasma level of glucose” value was “not changed” and the “plasma level of insulin” value is “not changed”. Moreover, in test [5] (setting [8]), the body weight result is listed as “dose-dependent increase” and the food intake entry is reported as “dose-dependent increase”. Further, the body weight increase in test [5] was 12%. The energy balance entry in test [6] is “positive energy balance”. Further, in test [6] (p=0.008, n=24), the “AGRP mRNA levels” value is reported as “increase”.
Regarding ghrelin, the “effect of administration in an animal model (fat deposition)” value in test [1] (animal model, inventors' work, Nature 407: 908-913 (2000)) is recorded as “predominantly lead to fat deposition”. For the same substance, in test [3] (setting [7]), the energy expenditure result is listed as “decreased” and the lipid utilization result was “decreased”. This substance displayed a body weight increase in test [5] of 12%.

Source of the values: US20050201938A1, “Method for selectively inhibiting ghrelin action” (priority 2000, published 2005).
